Assay results published in PMC9721426, “Novel piperine-carboximidamide hybrids: design, synthesis, and antiproliferative activity via a multi-targeted inhibitory pathway” (Journal of Enzyme Inhibition and Medicinal Chemistry, 2022).

What was measured:
[1] = MTT cell viability assay on normal mammary epithelial cells; type: cell-based; conditions: human, MCF-10A mammary epithelial cells, MCF-10A normal cells, 4 days incubation
Experimental: A human mammary gland epithelial (MCF-10A) normal cell line was used to perform the viability test. The viability of compounds VIa-k was determined using the MTT assay after 4 days of incubation with MCF-10A cells[26]^,[27].
The MTT assay was used to assess how the synthetic compounds impacted the viability of mammary epithelial cells (MCF-10A)[26]^,[27]. Appendix A. […]
4.2. Biological evaluation
4.2.1. Cytotoxic activity using MTT Assay and evaluation of IC50
MTT assay was carried out to study the effect of compounds on mammary epithelial cells (MCF-10A)26,27. The medium in which cells were propagated contained Dulbecco's modified Eagle's medium (DMEM)/ Ham's F-12 medium (1:1) supplemented with epidermal growth factor (20 ng/mL), hydrocortisone (500 ng/mL), insulin (10 μg/mL), 2 mM glutamine and 10% foetal calf serum. After every 2-3 days, the cells were passaged using trypsin ethylenediamine tetra acetic acid (EDTA). The cells were seeded at a density of 10^4 cells mL-1 in flat-bottomed culture plates containing 96 wells each. […]
(§1) A single compound was designated with four wells followed by incubation of plates for 96h at 37°C. After incubation, medium was removed completely from the plates followed by addition of MTT (0.4 mg/mL in medium) to each well and subsequent incubation of plates for 3h. MTT (along with the medium) was removed and DMSO (150μL) was added to each well of the culture plates, followed by vortexing and subsequent measurement of absorbance (at 540 nm) using microplate reader. […]

[2] = tested on: A-549 (epithelial cancer cell line); assay: Antiproliferative MTT assay, A-549; type: cell-based; conditions: Homo sapiens, A549; A-549, MTT; read-out: Antiproliferative activity IC50 ± SEM, A-549
Experimental: (§2) The MTT assay was performed using various cell lines in accordance with previously reported procedures[28]^,[29] to investigate the antiproliferative potential of VIa-k. Refer to Appendix A. […]
(§3) added (in 200 μL medium to yield a final concentration of 0.1% v/v) to the wells of plates. A single compound was designated with four wells followed by incubation of […]
as §1, with “After” for “A single compound was designated with four wells followed by incubation of plates for 96h at 37°C. After”, “reader. The data are shown as percentage inhibition of proliferation in comparison with controls containing 4.2.1.2. Assay for antiproliferative effect” for “reader.”
(§4) The percentage cytotoxicity of compounds was calculated using the following […]
(§5) Where ATC= Absorbance of treated cells and AC= Absorbance of control. […]
(§6) used as positive control in the assay. […]

[3] = tested on: MCF-7 (breast cancer cell line); assay: Antiproliferative MTT assay, MCF-7; type: cell-based; conditions: Homo sapiens, MCF7; MCF-7, MTT; read-out: Antiproliferative activity IC50 ± SEM, MCF-7
Experimental: as §2, §3
as §1, with “After” for “A single compound was designated with four wells followed by incubation of plates for 96h at 37°C. After”, “reader. The data are shown as percentage inhibition of proliferation in comparison with controls containing 4.2.1.2. Assay for antiproliferative effect” for “reader.”
as §4, §5, §6

[4] = tested on: Panc-1 (pancreatic cancer cell line); assay: Antiproliferative MTT assay, Panc-1; type: cell-based; conditions: Homo sapiens; Panc-1, MTT; read-out: Antiproliferative activity IC50 ± SEM, Panc-1
Experimental: as §2, §3
as §1, with “After” for “A single compound was designated with four wells followed by incubation of plates for 96h at 37°C. After”, “reader. The data are shown as percentage inhibition of proliferation in comparison with controls containing 4.2.1.2. Assay for antiproliferative effect” for “reader.”
as §4, §5, §6

[5] = tested on: HT-29 (colon cancer cell line); assay: Antiproliferative MTT assay, HT-29; type: cell-based; conditions: Homo sapiens; HT-29, MTT; read-out: Antiproliferative activity IC50 ± SEM, HT-29
Experimental: as §2, §3
as §1, with “After” for “A single compound was designated with four wells followed by incubation of plates for 96h at 37°C. After”, “reader. The data are shown as percentage inhibition of proliferation in comparison with controls containing 4.2.1.2. Assay for antiproliferative effect” for “reader.”
as §4, §5, §6

[6] = tested on: four human cancer cell lines (Panc-1, MCF-7, HT-29, A-549); assay: Antiproliferative MTT assay, average (GI50) over the four cancer cell lines; type: cell-based; conditions: for GI50: Homo sapiens, average of IC50 versus A-549, MCF-7, Panc-1, HT-29
Experimental: The average (GI50) versus the four cancer cell lines was chosen for ease of manipulation.
as §2, §3
as §1, with “After” for “A single compound was designated with four wells followed by incubation of plates for 96h at 37°C. After”, “reader. The data are shown as percentage inhibition of proliferation in comparison with controls containing 4.2.1.2. Assay for antiproliferative effect” for “reader.”
as §4, §5, §6

EGFR = target: T1, EGFR (Homo sapiens, UniProt P00533); assay: EGFR-TK inhibitory assay; type: biochemical
T1 construct: cytoplasmic domain (EGFR -CD, amino acids 645–1186); His6 (N); made in house; host or cells: Sf-9 insect cells (baculovirus, pBlueBacHis2B / pFASTBacHTc)
Experimental: 4.2.1.3. EGFR inhibitory assay
EGFR-TK assay was performed to evaluate the inhibitory potency of the tested compounds against EGFR30. Baculoviral expression vectors including pBlueBacHis2B […]
sequence comprised a sequence that encoded (His) 6. Sf-9 cells were infected for 72h for protein expression. The pellets of Sf-9 cells were solubilized in a buffer containing sodium vanadate (100 µM), aprotinin (10 µg/mL), triton (1%), HEPES buffer (50mM), ammonium molybdate (10 µM), benzamidine HCl (16 µg/mL), NaCl (10 mM), leupeptin (10 µg/mL) and pepstatin (10 µg/mL) at 0°C for 20 min at pH 7.4, followed by centrifugation for 20 min. To eliminate the non-specifically bound material, a Ni-NTA super flow packed column was used to pass through and wash the crude extract supernatant first with 10 mM and then with 100 mM imidazole. […]
NaCl (50 mM), HEPES (20 mM), glycerol (10%) and 1 µg/mL each of aprotinin, leupeptin and pepstatin for 120 min. The purification was performed either at 4 °C or on ice. To record autophosphorylation level, EGFR kinase assay was carried out on the basis of DELFIA/Time-Resolved Fluorometry. The compounds were first dissolved in DMSO […]
pH 7.4. Each compound (10 µL) was incubated with recombinant enzyme (10 µL, 5 ng for EGFR, 1:80 dilution in 100 mM HEPES) for 10 min at 25 °C, subsequent to the addition of 5X buffer (10 µL, containing 2 mM MnCl2, 100 µM Na3VO4, 20 mM HEPES and 1 mM DTT) and ATP-MgCl2 (20 µL, containing 0.1 mM ATP and 50 mM MgCl 2) and incubation for 1h. The negative and positive controls were included in each plate by the incuba tion of enzyme either with or without ATP -MgCl2. The liquid was removed after incubation and the plates were washed thrice using wash buffer. Europium -tagged antiphosphotyrosine antibody (75 µL, 400 ng) was added to each well followed by incubation of 1h a nd then washing of the plates using buffer. The enhancement solution was added to each well and the signal was recorded at excitation and emission […]
The autophosphorylation percentage inhibition by compounds was calculated using the following equation: […]
Using the curves of percentage inhibition of eight concentrations of each compound, IC 50

BRAF^V600E = target: T2, BRAF^V600E (Mus musculus, UniProt P28028, V585E); assay: BRAF V600E kinase assay; type: biochemical; conditions: read-out: BRAF^V600E inhibition IC50 ± SEM
T2 construct: Mouse full-length GST-tagged BRAFV600E; GST; purchased Invitrogen PV3849
Experimental: An in vitro study was conducted to evaluate the anti-BRAF^V600E of VIc, VIf, VIg, VIi, and VIk[31]. […] An in vitro study[31] was conducted to evaluate the anti-BRAF^V600E of VIc, VIf, VIg, VIi, and Vik. See Appendix A.
4.2.1.4. BRAF kinase assay
V600E mutant BRAF kinase assay was performed to investigate the activity of the most […]
Mouse full-length GST-tagged BRAFV600E (7.5 ng, Invitrogen, PV3849) was pre-incubated with drug (1 µL) and assay dilution buffer (4 µL) for 60 min at 25 °C. In assay dilution buffer, a solution (5 µL) containing MgCl 2 (30 mM), ATP (200 µM), recombinant human full length (200 ng) […] N-terminal His-tagged MEK1 (Invitrogen) was added to start the assay, subsequent to incubation for 25 min at 25 °C. The assay was stopped using 5X protein denaturing buffer (LDS) solution (5 µL).
To further denature the protein, heat (70° C) was applied for 5 min.
NuPage gel plates (Invitrogen) were used to carry out electrophoresis (at 200 V). 10 µL of each reaction was loaded into the precast plates and electrophoresis was allowed to proceed. After completion of electrophoresis, the front part of the precast gel plate (holding hot ATP) was cut and afterw ards cast-off. The dried gel was developed using a […]
that containing no inhibitor served as positive control. […]

Human CDK2/A2 = Human CDK2/A2 (Homo sapiens, UniProt P24941); assay: CDK2 inhibitory assay
Experimental: Protein Kinase Assays. Human CDK2/A2 was purchased from New England Biolabs IC50 values for CDK2/A were determined according to the supplier’s instructions

T1 sequence (P00533 669-1210): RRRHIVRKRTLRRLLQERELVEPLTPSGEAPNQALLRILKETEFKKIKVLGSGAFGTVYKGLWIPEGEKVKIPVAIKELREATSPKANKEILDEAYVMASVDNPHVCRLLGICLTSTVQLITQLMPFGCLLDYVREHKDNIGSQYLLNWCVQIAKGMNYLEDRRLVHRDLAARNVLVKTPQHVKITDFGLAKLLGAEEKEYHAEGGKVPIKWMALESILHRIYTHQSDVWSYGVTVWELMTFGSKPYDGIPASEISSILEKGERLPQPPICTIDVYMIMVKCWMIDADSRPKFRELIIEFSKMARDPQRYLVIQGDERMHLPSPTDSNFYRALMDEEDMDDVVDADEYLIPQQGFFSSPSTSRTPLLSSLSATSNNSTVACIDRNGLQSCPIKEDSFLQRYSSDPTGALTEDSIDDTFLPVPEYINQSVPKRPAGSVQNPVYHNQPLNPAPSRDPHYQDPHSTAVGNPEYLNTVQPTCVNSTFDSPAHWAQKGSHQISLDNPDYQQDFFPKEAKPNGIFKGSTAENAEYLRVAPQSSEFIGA
T2 sequence (P28028 whole entry V585E): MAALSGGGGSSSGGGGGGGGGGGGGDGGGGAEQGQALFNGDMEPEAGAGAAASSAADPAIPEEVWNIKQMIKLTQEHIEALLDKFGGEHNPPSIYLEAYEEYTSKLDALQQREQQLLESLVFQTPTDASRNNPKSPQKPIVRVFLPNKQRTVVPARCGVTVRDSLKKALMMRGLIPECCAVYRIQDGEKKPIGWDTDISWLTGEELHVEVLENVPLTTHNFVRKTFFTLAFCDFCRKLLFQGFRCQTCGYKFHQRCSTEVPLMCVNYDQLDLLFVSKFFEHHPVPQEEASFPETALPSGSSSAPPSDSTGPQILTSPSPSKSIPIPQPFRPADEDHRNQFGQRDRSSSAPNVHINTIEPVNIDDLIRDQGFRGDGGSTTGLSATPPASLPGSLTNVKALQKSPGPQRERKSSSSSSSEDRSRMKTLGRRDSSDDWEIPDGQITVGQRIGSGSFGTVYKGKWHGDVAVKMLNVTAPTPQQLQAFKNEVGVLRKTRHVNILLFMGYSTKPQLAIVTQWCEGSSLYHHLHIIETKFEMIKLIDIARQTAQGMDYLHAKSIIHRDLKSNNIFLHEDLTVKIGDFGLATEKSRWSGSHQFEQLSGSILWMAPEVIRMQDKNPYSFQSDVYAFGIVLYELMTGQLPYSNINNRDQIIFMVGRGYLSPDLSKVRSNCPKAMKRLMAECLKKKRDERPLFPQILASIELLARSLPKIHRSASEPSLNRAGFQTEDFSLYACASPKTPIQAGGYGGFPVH

Compound	IC50 [2] [µM]	IC50 [3] [µM]	IC50 [4] [µM]	IC50 [5] [µM]	GI50 [6] [µM]	melting point [°C]	GI50 potency relative to VIi (less potent) ([6]; ratio of GI50 values) [fold]	IC50 (EGFR; EGFR-TK assay, read-out: EGFR inhibition IC50 ± SEM) [µM]	EGFR potency relative to erlotinib (lower) (EGFR; ratio of IC50 values) [fold]	IC50 (BRAF^V600E) [µM]	IC50 (Human CDK2/A2) [µM]	viability at 4 days, 50 µM [1] [%]
Cc1ccc(C(N)=NOC(=O)/C=C/C=C/c2ccc3c(c2)OCO3)cc1 [VIe, N'-{[(2E,4E)-5-(2H-1,3-Benzodioxol-5-yl)penta-2,4-dienoyl]oxy}-4-methylbenzene-1-carboximidamide]	0.069 ± 0.007	0.073 ± 0.007	0.075 ± 0.007	0.075 ± 0.007	0.073	185 to 188	–	–	–	–	–	89
NC(=NOC(=O)/C=C/C=C/c1ccc2c(c1)OCO2)c1ccccc1 [VIa, N'-{[(2E,4E)-5-(2H-1,3-Benzodioxol-5-yl)penta-2,4-dienoyl]oxy}benzene carboximidamide]	0.095 ± 0.01	0.097 ± 0.01	0.104 ± 0.01	0.105 ± 0.01	0.1	175 to 177	–	–	–	–	–	89
N/C(=N/OC(=O)/C=C/C=C/c1ccc2c(c1)OCO2)c1cccc2ccccc12 [VIj, N'-{[(2E,4E)-5-(2H-1,3-benzodioxol-5-yl)penta-2,4-dienoyl]oxy} naphthalene-1-carboximidamide]	0.078 ± 0.008	0.081 ± 0.008	0.084 ± 0.008	0.088 ± 0.009	0.083	–	2	–	–	–	–	85

Further lines, with some results ahead:

IC50 [2] [µM]	IC50 [3] [µM]	IC50 [4] [µM]	IC50 [5] [µM]	GI50 [6] [µM]	melting point [°C]	GI50 potency relative to VIi (less potent) ([6]; ratio of GI50 values) [fold]	IC50 (EGFR; EGFR-TK assay, read-out: EGFR inhibition IC50 ± SEM) [µM]	EGFR potency relative to erlotinib (lower) (EGFR; ratio of IC50 values) [fold]	IC50 (BRAF^V600E) [µM]	IC50 (Human CDK2/A2) [µM]	Compound	viability at 4 days, 50 µM [1] [%]
0.061 ± 0.006	0.064 ± 0.006	0.069 ± 0.006	0.067 ± 0.006	0.065	141 to 143	–	–	–	–	–	NC(=NOC(=O)/C=C/C=C/c1ccc2c(c1)OCO2)c1cccc(Br)c1 [VIh, N'-{[(2E,4E)-5-(2H-1,3-benzodioxol-5-yl)penta-2,4-dienoyl]oxy}-3-bromobenzene-1-carboximidamide]	91
0.042 ± 0.005	0.047 ± 0.005	0.049 ± 0.005	0.049 ± 0.005	0.047	163 to 165	–	0.096 ± 0.006	1.2	0.063 ± 0.006	0.02 ± 0.002	NC(=NOC(=O)/C=C/C=C/c1ccc2c(c1)OCO2)c1cccc(Cl)c1 [VIg, N'-{[(2E,4E)-5-(2H-1,3-benzodioxol-5-yl)penta-2,4-dienoyl]oxy}-3-chlorobenzene-1-carboximidamide]	87
